Assay results as given in US5527820A, “Antibiotics having immunosuppressive activity, delaminomycins and processes for the production of the same” (priority 1992, dated 1996).
≈ marks a conversion by molar mass, not a printed value.

Key:
[1] = system: spleen cells (T cells activated by Concanavalin A); assay: Inhibitory activity against blastogenesis and proliferation of spleen cells caused by mitogen (Con A); type: cell-based, mouse (CDF1)
[2] = system: nylon wool-passed cells of spleen cells (responder cell; T cells); assay: Inhibitory activity to the mixed lymphocyte culture reaction; type: cell-based, rat (Fischer F344 responder; WKY stimulator)
Mouse leukemia L-1210 = assay: Inhibitory activity on proliferation of cancer cells; type: cell-based; conditions: L1210
Mouse leukemia P388D1 = assay: as above; type: cell-based
Mouse leukemia EL-4 = assay: as above; type: cell-based; conditions: EL4
Mouse melanoma B-16 = assay: as above; type: cell-based; conditions: B16
Human Lymphoma Jurkat = assay: as above; type: cell-based
Candida tropicalis F-1 = assay: MIC, agar plate dilution method; type: cell-based; conditions: F1, 27° C., 42 hours, nutrient agar containing glucose
[3] = system: Candida pseudotropicalis F-2; assay: MIC, agar plate dilution method; type: cell-based; conditions: Kluyveromyces marxianus, F2; 27° C., 42 hours, nutrient agar containing glucose
Candida albicans 3147 = assay: MIC, agar plate dilution method; type: cell-based; conditions: 27° C., 42 hours, nutrient agar containing glucose
Candida Yu-1200 = assay: MIC, agar plate dilution method; type: cell-based; conditions: YU1200, 27° C., 42 hours, nutrient agar containing glucose
Candida krusei F-5 = assay: MIC, agar plate dilution method; type: cell-based; conditions: Pichia kudriavzevii, F5; 27° C., 42 hours, nutrient agar containing glucose
[4] = system: Saccharomyces cerevisiae F-7; assay: MIC, agar plate dilution method; type: cell-based; conditions: F7, 27° C., 42 hours, nutrient agar containing glucose
Cochliobolus miyabeanus = assay: MIC, agar plate dilution method; type: cell-based; conditions: Bipolaris oryzae; 27° C., 42 hours, nutrient agar containing glucose
Description: (§1) Delaminomycins A, B, C, A2, B2 and C2 according to this invention further have an antibacterial activity against a variety of bacteria. The minimum growth inhibitory concentrations (MIC) (μg/ml) of the novel antibiotics of this invention on various bacteria and fungi as measured by the agar plate dilution method are shown in Table 5a, Table 5b, Table 5c and Table 5d below.
(§2) Evaluated after culturing at 27° C. for 42 hours in nutrient agar
(§3) medium containing glucose.

Xanthomonas citri = assay: MIC, agar plate dilution method; type: cell-based; conditions: 27° C., 42 hours, nutrient agar containing glucose
Description: as §1, §2, §3

Piricularia oryzae = assay: microbe, parasite or virus in culture; type: cell-based; conditions: 42 h
Pellicularia sasakii = assay: MIC, agar plate dilution method; type: cell-based; conditions: 27° C., 42 hours, nutrient agar containing glucose
Aspergillus niger F-16 = assay: MIC, agar plate dilution method; type: cell-based; conditions: F16, 27° C., 42 hours, nutrient agar containing glucose
[5] = system: Trichophyton asteroides 429; assay: MIC, agar plate dilution method; type: cell-based; conditions: 27° C., 42 hours, nutrient agar containing glucose
[6] = system: Trichophyton mentagrophytes F-15 (833); assay: MIC, agar plate dilution method; type: cell-based; conditions: 27° C., 42 hours, nutrient agar containing glucose
Gram-positive bacteria = assay: Antibacterial activity to Gram-positive bacteria; type: cell-based; conditions: result in words
Excerpt: as §1

Solubility = conditions: result in words
[7] = Absorption into the digestive tracts on oral administration; conditions: result in words

CCC(O)C(C)/C=C/C=C/C(O)CC1C=CC2CC(C)CC(C)C2C1(C)C(=O)C1C(=O)CNC1=O (stereo not shown) [Delaminomycin C]
IC50 ([1]; Mus musculus, T-cell, read-out: IC50 (inhibition of blastogenesis and proliferation of spleen lymphocyte caused by Con A)): 1 µg/mL (≈ 2.06 µM) | inhibition at 0.39 µg/mL ([1]; Mus musculus, T-cell, 0.39 μg/ml test compound, read-out: Inhibition rate): 1% | inhibition at 1.56 µg/mL ([1]; Mus musculus, T-cell, 1.56 μg/ml test compound, read-out: Inhibition rate): 75% | inhibition at 6.25 µg/mL ([1]; Mus musculus, T-cell, 6.25 μg/ml test compound, read-out: Inhibition rate): 75% | inhibition at 25 µg/mL ([1]; Mus musculus, T-cell, 25 μg/ml test compound, read-out: Inhibition rate): 76% | inhibition at 100 µg/mL ([1]; Mus musculus, T-cell, 100 μg/ml test compound, read-out: Inhibition rate): 76% | activity inhibitory to the reaction of proliferation of mouse spleen cells activated with Concanavalin A ([1]; in vitro, result in words): exhibit an activity inhibitory to the reaction of proliferation of mouse spleen cells | inhibition at 0.1 µg/mL ([2]; Rattus norvegicus, T-cell, 0.10 μg/ml test compound, read-out: Inhibition rate): 19.5% | inhibition at 0.39 µg/mL ([2]; Rattus norvegicus, T-cell, 0.39 μg/ml test compound, read-out: Inhibition rate): 41.6% | inhibition at 1.56 µg/mL ([2]; Rattus norvegicus, T-cell, 1.56 μg/ml test compound, read-out: Inhibition rate): 89% | inhibition at 6.25 µg/mL ([2]; Rattus norvegicus, T-cell, 6.25 μg/ml test compound, read-out: Inhibition rate): 97.3% | inhibition at 25 µg/mL ([2]; Rattus norvegicus, T-cell, 25 μg/ml test compound, read-out: Inhibition rate): 97.6% | inhibition at 100 µg/mL ([2]; Rattus norvegicus, T-cell, 100 μg/ml test compound, read-out: Inhibition rate): 96.9% | IC50 ([2]; Rattus norvegicus, T-cell, 120 hours, 3H-thymidine incorporation, read-out: IC50 (inhibition of mixed lymphocyte culture reaction)): 0.5 µg/mL (≈ 1.03 µM) | activity to inhibit the proliferation of the T cells (responder cell) in mixed lymphocyte culture reaction ([2]; in vitro, result in words): have an activity to inhibit the reaction of proliferation of the T cells | IC50 (Mouse leukemia L-1210): 42 µg/mL (≈ 86.5 µM) | IC50 (Mouse leukemia P388D1): 3.1 µg/mL (≈ 6.38 µM) | IC50 (Mouse leukemia EL-4): 1.9 µg/mL (≈ 3.91 µM) | IC50 (Mouse melanoma B-16): 7.4 µg/mL (≈ 15.2 µM) | IC50 (Human Lymphoma Jurkat): 1.2 µg/mL (≈ 2.47 µM) | MIC (Candida tropicalis F-1): > 100 µg/mL | MIC [3]: > 100 µg/mL | MIC (Candida albicans 3147): > 100 µg/mL | MIC (Candida Yu-1200): > 100 µg/mL | MIC (Candida krusei F-5): > 100 µg/mL | MIC [4]: > 100 µg/mL | MIC (Cochliobolus miyabeanus): > 100 µg/mL | MIC (Xanthomonas citri): > 100 µg/mL | MIC (Piricularia oryzae): > 100 µg/mL | MIC (Pellicularia sasakii): > 50 µg/mL | MIC (Aspergillus niger F-16): > 100 µg/mL | MIC [5]: > 100 µg/mL | MIC [6]: > 100 µg/mL | antibacterial activity to Gram-positive bacteria (Gram-positive bacteria): antibacterial activity to Gram-positive bacteria | Solubility (Solubility; various solvents): soluble in methanol but slightly soluble or insoluble in water, acetone, ethyl ether and n-hexane | Solubility in water (Solubility; water): barely soluble in water | absorption into the digestive tracts / oral absorption [7]: hardly absorbed into the digestive tracts
